Molecules are shown by their SMILES.

A word on the melting point: it is the temperature of the solid-liquid transition.

Take `C[C@@H](CO)NC(=S)[C@@H](CC(=O)OC(C)(C)C)NC(=O)OC(C)(C)C`: the melting point lay within 70 to 72 °C.

As for `CN1Cc2cncn2-c2cccc(Cl)c2C1=O`, the melting point is 200 to 201 °C.

Compound `Cc1ccc(C)n1-c1cc2c(cc1C(F)(F)F)[nH]c(=O)c(=O)n2CC(=O)NCc1ccccc1` displayed a melting point above 250 °C.

On to `O=C1CN2Cc3c(ccc(Cl)c3Cl)N=C2N1`, for which the melting point is above 300 °C.

In turn, `Cc1ccc(-c2ccc(Sc3ccccc3)s2)cc1` had a melting point of 85 to 86 °C.

Compound `CC1c2cc(O)ccc2-c2c1cc1cc(O)ccc1c2Cl` (configuration not stated) returned a melting point of 215 to 220 °C.

Compound `Nc1ncc(-c2ccccc2)nc1Oc1ccccc1` registered a melting point of 129 to 131 °C.

`CCCCCCCCCCCCCCCCCC(=O)NCC(O)C(C)(O)CCCC(C)CCCC(C)CCCC(C)C` (configuration not stated) came in with a melting point of 47 to 48 °C.

In the case of `O=Cc1cc(O)ccc1-c1cccc(C(F)(F)F)c1`, the melting point was 100 to 102 °C.

On to `O=S(=O)(O)c1cccc(NCc2ccc(Cl)c(Cl)c2)c1`, for which the melting point was above 275 °C.

The compound `Cc1cc(NC(=O)c2cc(C#N)cc(C)n2)ccn1` yielded a melting point of 302 °C.

As to `NS(=O)(=O)c1ccc(-c2c(-c3ccccc3)noc2COCC(F)(F)CO)cc1`, the melting point is 93 to 94 °C.

Compound `CNC(=O)C(C)Oc1ncn(-c2ccccc2)n1` (configuration not stated) showed a melting point of 134 to 135 °C.

Consider `CCCC(C)Nc1c([N+](=O)[O-])cc(S(C)(=O)=O)c(C)c1[N+](=O)[O-]` (configuration not stated), for which the melting point lay within 85 to 88 °C.

`CN(C)CCNC(=O)c1ccc(-c2ccccc2CSCCOc2ccccc2)cc1` displayed a melting point of 93 to 96 °C.

Compound `CC1CCC2(OC1)OC1CC3C4CCC5CC(O)CCC5(C)C4C=CC3(C)C1C2C` (configuration not stated) came in with a melting point of 179 to 181 °C.

`c1ccc(-c2nc(CSc3nc4cccc5c4n3CCC5)cs2)cc1` showed a melting point of 116 to 118 °C.

Compound `O=C(O)CC(c1ccc(F)cc1)c1ccc(F)cc1` showed a melting point of 106 to 107 °C.

For the compound `COC(=O)C(=NO)c1nc2cc(C)ccc2oc1=O`, the melting point was 176 to 177 °C.

For the compound `CCOC(=O)c1cc2c(Cl)c(F)ccc2[nH]1`, the melting point lay in the range of 180 to 182 °C.

In turn, `CC(C)(C)c1cc(Oc2ccc(N)cc2)ccc1Oc1ccc(N)cc1` had a melting point of 129 to 130 °C.

For the compound `N#CCN(CC#N)CCN(CC#N)CC#N`, the melting point fell in the range of 131 to 132 °C.

Compound `Cc1ccc(S(=O)(=O)N2CCCC2c2ccncc2)cc1` (racemic) yielded a melting point of 158 °C.

The compound `CCOC(=O)CN(Cc1ccccc1)C(=O)Cn1c2cccc(OCc3ccccc3)c2c2c(COC)c(C(=O)OC(C)C)ncc21` gave a melting point of 122 °C.

`CC(=O)Oc1ccc(C2CC(=O)OC(=O)C2)cc1` showed a melting point of 140 to 143 °C.

Compound `O=C1NC(=O)C(Cc2ccc(OCC34CC5CC(CC(C5)C3)C4)cc2)S1` (configuration not stated) showed a melting point of 188 to 191 °C.

Turning to `CCn1ncc2c3noc(-c4cccc(C)c4)c3cnc21`, the melting point lay in the range of 178 to 179 °C.

The compound `CCC1=C(Cl)C(=O)c2ccccc2C1=O` returned a melting point of 109 to 110 °C.

With `COc1cc(OC)cc(C(=O)CC(=O)c2ccc(O)cc2O)c1`, the melting point fell in the range of 267 to 268 °C.

As to `O=S(=O)(Cl)c1nc2nc(CF)cc(Cl)n2n1`, the melting point fell in the range of 92 to 98 °C.

Compound `COc1ccc(CN2CC(=O)Nc3cccc(Cl)c3C2=O)c(OC)c1` showed a melting point of 230 to 231 °C.

Consider `Cc1cc(C)c2cc(C3CCNC(C)C3)sc2c1` (configuration not stated), for which the melting point fell in the range of 52 to 57 °C.

As for `O=C(NN1CCOCC1)c1ccc(O)c(Br)c1`, the melting point lay in the range of 216 to 218 °C.

Compound `O=S(=O)(c1ccccc1)N1CCCC1c1ccc(F)cc1` (racemic) displayed a melting point of 100 °C.

Compound `CCC(C)(C)NC(Nc1cc(Cl)cc(Cl)c1)=C(C#N)S(=O)(=O)c1ccc(Cl)cc1` returned a melting point of 189 to 192 °C.

`Cn1nc(-c2ccc(Cl)cc2)n(C)c1=S` registered a melting point of 113 to 115 °C.

Consider `CC(=O)OCC=Cc1ccccc1S(N)(=O)=O`, for which the melting point was 94 to 95 °C.

As to `COc1cc(NC(=O)OC(C)(C)C)c([N+](=O)[O-])cc1C#Cc1ccccc1`, the melting point is 129 °C.

Take `CCC(=O)Nc1c(N)cc(Br)cc1OCc1ccccc1`: the melting point lay within 198 to 201 °C.

Consider `CCCCCCCCCCCCCCCCC(Cl)C(=O)O` (configuration not stated), for which the melting point was in the range of 63.5 to 64 °C.

In the case of `CCCCCCCCOc1c(Cl)c(Sc2ccccc2N)c(OCCCCCCCC)c2c1C(=N)NC2=N`, the melting point is 97 to 99 °C.

`CCOC(=O)C(Oc1ccc2ccccc2c1)C(=O)OCC` returned a melting point of 57 to 58.5 °C.

For the compound `c1coc(C2Nc3ccccc3N3CCc4cccc2c43)c1` (configuration not stated), the melting point lay within 141 to 144 °C.

The compound `CC12CC(Cl)C(O)CC1CCC1C2CCC2(C)C(O)C(N3CCCCC3)CC12` (configuration not stated) gave a melting point of 232 to 234 °C.

`Cc1oc(-c2ccccc2)nc1CCOc1ccc(C[C@H](NC(=O)C=Cc2ccc(F)cc2)C(=O)O)cc1` registered a melting point of 188 to 190 °C.

Turning to `O=CN(O)C(CCCO)CS(=O)(=O)c1ccc(-c2ccc(C(F)(F)F)cc2)cc1` (configuration not stated), the melting point lay within 139 to 140 °C.

Consider `Oc1ccc(CN(Cc2ccc(O)c3ncccc23)Cc2ccc(O)c3ncccc23)c2cccnc12`, for which the melting point was 175 to 178 °C.

`O=C(SC(SC(=O)c1ccccc1)C(=O)O)c1ccccc1` displayed a melting point of 82 to 83 °C.

With `COc1cc2c(Nc3ccc(Cl)cc3F)ncnc2cc1OCCCSc1nccn1C`, the melting point lay within 199 to 201 °C.

The compound `CC(C)(C)OC(=O)NNC(=O)c1ccc2ncsc2c1` came in with a melting point of 128 to 129 °C.

`CO/C=C(/C(=O)OC)c1ccccc1COc1cccc(Cl)n1` registered a melting point of 91 to 92 °C.

`OC1CSC(Oc2ccc(-c3ccnc(F)c3)nc2Cl)C(O)C1O` (configuration not stated) had a melting point of 195 °C.

The compound `CCC1=NNC(C)=C(C(=O)OC2CCCC2)C1c1cccc([N+](=O)[O-])c1` (configuration not stated) displayed a melting point of 110 °C.

The compound `COc1ccc(C(=O)c2ccc3cc(OC)ccc3c2)c(F)c1` had a melting point of 120 to 122 °C.

In turn, `O=[N+]([O-])c1c(Cl)cccc1NCCO` came in with a melting point of 78 °C.

Compound `COC(=O)c1ccc2cccc(OS(=O)(=O)C(F)(F)F)c2n1` gave a melting point of 77 to 78 °C.

For `CC(C)(C)c1cc(-c2nc3ccc(O)cc3o2)ccc1O`, the melting point is 220 to 222 °C.

In turn, `COc1c(Cl)ccc(-c2cc(N)c(Cl)c(C(=O)OCc3ccc(Cl)cc3Cl)n2)c1F` returned a melting point of 165 to 168 °C.

Regarding `C1=C(c2ccccc2)CCN(c2nsc3ccccc23)C1`, the melting point lay within 272 to 273 °C.

Consider `CN(O)C(=O)c1ccc(CCCCc2ccncc2)cc1`, for which the melting point fell in the range of 148 to 150 °C.

The compound `O=C(c1ccccc1)[C@]1([N+](=O)[O-])[C@H](c2ccccc2)[C@H]2C[C@H](O)[C@@H]1C2` (relative stereo) returned a melting point of 168 to 169 °C.

In turn, `CCCSc1nsnc1O` returned a melting point of 84 to 85 °C.

`Cc1cc(Nc2ccc(C#N)cc2)c([N+](=O)[O-])c(C)n1` came in with a melting point of 171 to 172 °C.

The compound `O=[N+]([O-])c1cc(Cl)c(OCC(F)(F)C(F)(F)F)c(Cl)c1F` displayed a melting point of 62 to 63 °C.

`C=C(C)C(=O)NCCC#N` showed a melting point of 46 to 48 °C.

For `CCc1cc2[nH]ccc(=O)c2c(CC)n1`, the melting point was in the range of 207 to 208 °C.

For `N#CC(=Cc1cccnc1)c1ccc(Cl)cc1`, the melting point lay within 141 to 143 °C.

On to `CC1(C)COC(c2ccccc2-c2ccc(CCl)cc2)=N1`, for which the melting point lay in the range of 72 to 75 °C.

As for `CCn1nc(N)nc1NCCCOc1cccc(CN(C)C)c1`, the melting point was 104 to 105 °C.

With `Clc1cc(Cl)cc(CC(Cl)CC(Cl)(Cl)Cl)c1` (configuration not stated), the melting point lay in the range of 44.5 to 46.5 °C.

The compound `NCC1N=C(c2ccccc2F)c2ccccc2NC1=O` (racemic) showed a melting point of 168 to 169 °C.

The compound `COc1cc(C(=O)NS(=O)(=O)c2ccccc2C)ccc1Cc1cn(C)c2ccc(CC3CCN(C)C3=O)cc12` (configuration not stated) returned a melting point of 115 to 135 °C.

`O=C(O)c1cc([N+](=O)[O-])cc(S(F)(F)(F)(F)F)c1`: the melting point was found to be 140 °C.

`COC(=O)c1ccc(C)c(NC(=O)c2cccc([N+](=O)[O-])c2)c1` displayed a melting point of 208 to 209 °C.

The compound `CC(C)(C)c1cc(C(=O)c2ncc[nH]2)cc(C(C)(C)C)c1O` returned a melting point of 286 to 288 °C.

The compound `CN(C)CCNC(=O)c1cccc(-c2ccnc(C(=O)N(O)Cc3ccccc3)c2)c1` returned a melting point of 65 to 70 °C.

The compound `CCOC(=O)c1c(C)nc(OCC)c2nnn(CC)c12` had a melting point of 56 to 58 °C.

In turn, `O=C(NCCO)c1cccc(-c2cccc3oc(Cc4cccc(C(F)(F)F)c4)nc23)c1` registered a melting point of 132 to 133 °C.

The compound `COc1ncccc1-c1cccc(OC2SCC(OC(C)=O)C(OC(C)=O)C2OC(C)=O)c1` (configuration not stated) returned a melting point of 179 °C.

`CC1(C)CC(S(C)(=O)=O)=NO1` came in with a melting point of 82 to 84 °C.

Compound `COCCC(=O)N[C@H]1CC[C@H](CCN2CCN(c3nccc4c3OCC4)CC2)CC1` gave a melting point of 180 °C.

In the case of `CCCc1nc(N)cc(OC)n1`, the melting point was in the range of 97 to 99 °C.

As for `O=C(O)CCc1cn(Cc2ccc(OCc3cccnc3)cc2)cc1-c1ccccc1`, the melting point is 131 to 132 °C.

`CCOC(=O)c1c2n(c3cc(Br)c(F)cc3c1=O)CCS2` gave a melting point of 258 to 262 °C.

In turn, `C=Nn1nc(NC)n(OCC)c1=O` had a melting point of 169 °C.

In the case of `CC(C)(C)c1cc(Br)c(O)c(C=O)c1Cl`, the melting point lay within 103 to 105 °C.

Compound `Cc1ncn(-c2nccc3[nH]c(=O)ccc23)n1` had a melting point above 300 °C.

For the compound `Cc1c(SCCN2CCCCC2)ccnc1CSc1nc2ccccc2[nH]1`, the melting point lay within 138 to 140 °C.

Regarding `CCOP(=O)(OCC)c1c(-c2c(OC)ccc3ccccc23)cc2c(c1-c1ccccc1)COC2`, the melting point lay in the range of 123 to 125 °C.

Compound `CNC1(c2ccccc2Cl)C(=O)Nc2c(F)cc(Cl)cc21` (configuration not stated) yielded a melting point of 219 °C.

For the compound `Oc1ccccc1-c1nc(-c2ccccc2O)n(CC(F)(F)F)n1`, the melting point lay within 154 to 156 °C.

For the compound `N#CC(=CNC1CC1)C(=O)c1cc(F)c(F)c(F)c1F`, the melting point lay in the range of 88 to 89 °C.
